Experiments:
Assay type in all cases: binding
[1] = biological target: T1, FLAG-tagged full-length SAF-A (Homo sapiens, UniProt Q00839); test: stabilisation of immuno-purified oligomer, native PAGE western blot; settings: 1 mM nucleotide, 37 °C, 10 mM DTT to reverse cross-links
T1 construct: gene HNRNPU

[2] = biological target: T2, SAF-A AAA+ domain (His-tagged AAA+ fragment) (Homo sapiens, UniProt Q00839, K510A, form not given); test: intrinsic fluorescence quenching (ex […] nm, em […] nm); settings: pH 7.5, 37 °C, 10 mM MgCl2, 125 mM NaCl, 5 mM DTT; Walker A mutant
T2 construct: gene HNRNPU; AAA+ domain fragment, N-terminal 6xHis in pET32a, E. coli BL21(DE3); exact borders not in text (AAA domain modelled as aa 469-653)
T2 sequence (Q00839 507-691 K510A limits assumed): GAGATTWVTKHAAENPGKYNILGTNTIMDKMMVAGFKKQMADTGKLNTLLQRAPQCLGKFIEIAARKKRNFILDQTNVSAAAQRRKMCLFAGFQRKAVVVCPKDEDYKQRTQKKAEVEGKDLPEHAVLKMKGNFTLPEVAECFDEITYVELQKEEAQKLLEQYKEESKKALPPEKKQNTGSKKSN

[3] = biological target: T3, SAF-A AAA+ domain (His-tagged AAA+ fragment) (Homo sapiens, UniProt Q00839, D580A, form not given); test: as above; settings: pH 7.5, 37 °C, 10 mM MgCl2, 125 mM NaCl, 5 mM DTT; Walker B mutant
T3 construct: gene HNRNPU; AAA+ domain fragment, N-terminal 6xHis in pET32a, E. coli BL21(DE3); exact borders not in text (AAA domain modelled as aa 469-653)
T3 sequence (Q00839 507-691 D580A limits assumed): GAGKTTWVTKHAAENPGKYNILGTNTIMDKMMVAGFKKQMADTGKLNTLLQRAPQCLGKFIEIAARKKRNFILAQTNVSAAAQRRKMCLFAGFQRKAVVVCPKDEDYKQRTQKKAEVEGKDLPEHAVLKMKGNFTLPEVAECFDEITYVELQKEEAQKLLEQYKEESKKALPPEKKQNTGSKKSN

[4] = biological target: T4, SAF-A AAA+ domain (His-tagged AAA+ fragment) (Homo sapiens, UniProt Q00839); test: as above
T4 construct: gene HNRNPU; AAA+ domain fragment, N-terminal 6xHis in pET32a, E. coli BL21(DE3); exact borders not in text (AAA domain modelled as aa 469-653)
T4 sequence (Q00839 488-672 limits assumed): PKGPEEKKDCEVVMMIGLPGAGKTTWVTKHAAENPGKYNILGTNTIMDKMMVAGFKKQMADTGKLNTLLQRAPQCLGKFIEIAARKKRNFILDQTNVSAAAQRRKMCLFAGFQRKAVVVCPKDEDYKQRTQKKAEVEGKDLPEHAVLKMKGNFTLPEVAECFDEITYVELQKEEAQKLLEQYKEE

T1 sequence (Q00839 2-806 isoform Q00839-2): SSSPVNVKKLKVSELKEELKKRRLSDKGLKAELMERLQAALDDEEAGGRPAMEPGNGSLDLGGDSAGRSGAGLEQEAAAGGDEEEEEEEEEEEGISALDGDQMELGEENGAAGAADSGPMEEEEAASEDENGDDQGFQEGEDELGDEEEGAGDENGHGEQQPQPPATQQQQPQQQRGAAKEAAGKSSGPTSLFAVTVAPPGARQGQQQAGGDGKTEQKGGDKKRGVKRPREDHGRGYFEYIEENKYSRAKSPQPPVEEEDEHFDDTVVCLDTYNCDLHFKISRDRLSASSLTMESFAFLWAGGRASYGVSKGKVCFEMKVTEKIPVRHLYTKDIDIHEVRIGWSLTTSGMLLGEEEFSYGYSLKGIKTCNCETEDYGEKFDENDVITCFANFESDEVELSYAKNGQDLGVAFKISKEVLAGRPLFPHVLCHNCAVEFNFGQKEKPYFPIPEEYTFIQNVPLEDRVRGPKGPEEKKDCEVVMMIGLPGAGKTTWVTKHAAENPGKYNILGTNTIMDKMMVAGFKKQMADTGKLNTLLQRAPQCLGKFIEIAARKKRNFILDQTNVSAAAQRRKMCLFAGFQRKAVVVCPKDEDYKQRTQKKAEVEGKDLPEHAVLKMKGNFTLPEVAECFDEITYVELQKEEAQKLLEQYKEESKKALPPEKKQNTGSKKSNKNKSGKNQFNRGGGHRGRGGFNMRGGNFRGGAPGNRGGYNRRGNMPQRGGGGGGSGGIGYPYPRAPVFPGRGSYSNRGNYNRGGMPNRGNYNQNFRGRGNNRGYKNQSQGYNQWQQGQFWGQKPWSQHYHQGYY

## Nc1ncnc2c1ncn2[C@@H]1O[C@H](COP(=O)(O)OP(=O)(O)OP(=O)(O)O)[C@@H](O)[C@H]1O [ATP]
[1]
  stabilisation of immuno-purified oligomer, native PAGE western blot: ATP or ATPγS stabilized the oligomers
[2]
  ATP binding abrogated (no binding): Mutation of the Walker A motif abrogated ATP binding
[3]
  Kd: 29 µM
[4]
  Kd: 38 µM

— publication PMC5473940, “SAF-A Regulates Interphase Chromosome Structure through Oligomerization with Chromatin-Associated RNAs” (Cell, 2017)
